Data on one molecule can be found in patent US7223737B1, “Method of treating dry eye disorders using glycosides” (Alcon, Inc., priority 2004, dated 2007).

This experiment concerns human primary corneal epithelial cells. As to the kind of experiment: mucin secretion assay using human primary corneal epithelial cells. It is filed as cell-based. Particulars: for Soluble Mucin Units/well: 45-minute incubation at 37° C., conditioned medium; for Total Mucin Units/well: soluble plus membrane-associated (NAC wash) mucin; for Stimulation Index: ratio of Total Mucin Units/well test solution to Control.

Consider `CCCCCCCCCCCCO[C@@H]1O[C@H](CO)[C@@H](O[C@H]2O[C@H](CO)[C@@H](O)[C@H](O)[C@H]2O)[C@H](O)[C@H]1O` [Dodecylmaltoside, n-Dodecyl-beta-D-maltoside], for which the “Soluble Mucin Units/well” value reads like this: (0.0001% DDM) 10 ± 0.6 Units/well; (0.001% DDM) 24.7 ± 2.7 Units/well; (0.01% DDM) 13.2 ± 0.5 Units/well. Moreover, the “Total Mucin Units/well” value by setting is: (0.0001% DDM) 18.7 ± 0.2 Units/well; (0.001% DDM) 32.3 ± 2.9 Units/well; (0.01% DDM) 30.17 ± 0.6 Units/well. In addition, the “Stimulation Index” value (0.0001% DDM) was determined as 1.23, the “Stimulation Index” value (0.001% DDM) was found to be 2.12 and the “Stimulation Index” value (0.01% DDM) turned out to be 1.98.
